Experimental data published in PubChem BioAssay AID1963831 (Molecular Pharmacology Branch, DTP, NCI, 2024).
Values joined by “and” are separate entries in the source; they are usually repeats but may differ in a detail not shown here. Equal values may be shown once.

Test system: 889142-216-R-J1-PDC complex spheroid viability
Assay: Anticancer human tumor 889142-216-R-J1-PDC patient-derived bladder carcinoma cell line growth inhibition [POLQ]
Conditions: for viability, T/C: stronger effect = lower value
Protocol: Multicellular complex tumor spheroid response to Polymerase (POL) inhibitors (novobiocin, ART-558, RP6685) in combination with a variety of drugs and investigational agents in selected tumor cell lines
The POL inhibitors (novobiocin, ART-558, and RP6685) were evaluated both individually and in combination with standard of care and investigational anticancer small molecules within a complex spheroid model of solid tumors. . Complex spheroids include a stromal component modeled by human endothelial cells (HUVEC) and fibroblasts modeled by human mesenchymal stem cells (MSCs). The concentration ranges selected for each drug and investigational agent were based upon clinically achievable concentrations if the clinical Cmax of the agent was known.
Compounds. The drugs and investigational agents: novobiocin (NSC847541), ART-558 (NSC835418), RP-6685 (NSC848927), peposertib (NSC802822), ceralasertib (NSC780249), elimusertib (NSC800525), camonsertib (NSC841442), AZD-1390 (NSC803789), olaparib (NSC753686), talazoparib (NSC767125), rucaparib (NSC756644), sotorasib (NSC818433), MRTX-1133 (NSC836407), SN-38 (NSC673596), topotecan (NSC609699), epotoside (NSC141540), doxorubicin (NSC123127), gemcitabine (NSC613327), 5-fluorouracil (NSC19893), paclitaxel (NSC125973), vemurafenib (NSC761431), MSA-2 (NSC828583), SN-011 (NSC837082), adavosertib (NSC754352), prexasertib (NSC758257), carboplatin (NSC241240) and oxaliplatin (NSC266046), were obtained from the National Cancer Institute (NCI) Developmental Therapeutics Program Chemical Repository (21). The FDA-approved anticancer drug set is available from the Developmental Therapeutics Program at https://dtp.cancer.gov/organization/dscb/obtaining/. […] The stock solutions were prepared in dimethyl sulfoxide (DMSO, Sigma-Aldrich, St. Louis, MO, cat. D2650), except for the platinum compounds which were prepared in saline (Quality Biological, Gaithersburg, MD, cat. 114-055-101), at 800-fold the tested concentration and stored at -70 degrees C prior to their use. All drugs and investigational agents were tested over a range starting from a high concentration at or near the clinical Cmax and decreasing in half-log increments. If the clinical Cmax for an agent had not been determined, the highest concentration tested was 10 microM, except for SN-38, which was tested at a high concentration of 1 microM.
Cell Culture. All cells were maintained in an incubator at 37 degrees C and 5% CO2 with 95% humidity. The PDC lines were cultured according to standard operating procedures established by the NCI PDMR (https://pdmr.cancer.gov). Table 3 of the manuscript, lists the cell lines along with the number of the three cell types plated to form the mct-spheroids and media for tumor cell growth. After thawing, all PDC lines, except 997537-175-T-J1-PDC and 415267-285-R-J2-PDC, were cultured in Matrigel-coated flasks prepared with a working solution of 1X Ham's F-12 nutrient mix, without supplementation (Thermo Fisher Scientific, cat. 11765054), 100 U/mL penicillin-streptomycin (Thermo Fisher Scientific, cat. 15140122), and 2.5% Matrigel (Corning Inc., Corning, NY, cat. 354248) for the first three passages. The two PDC lines 997537-175-T-J1-PDC and 415267-285-R-J2-PDC were cultured on uncoated flasks. The 857933-349-R-J2-PDC line was cultured in 6C/Colon 1B media containing advanced DMEM/F-12 (Thermo Fisher Scientific, cat. 12634028), 10 mM HEPES (Thermo Fisher Scientific, cat. 15630080), 1X GlutaMAX supplement (Thermo Fisher Scientific, cat. 35050061), 0.1 mg/mL primocin (InvivoGen, San Diego, CA, cat. ant-pm-2), 10% defined fetal bovine serum, heat inactivated (HyClone Laboratories Inc., Logan, UT, cat. SH30070.03HI), 50% L-WRN conditioned media (ATCC, cat. CRL-3276), 1.25 mM N-Acetyl-L-cysteine (Sigma-Aldrich, cat. A9165), 10 mM nicotinamide (Sigma-Aldrich, cat. N0636), 1X B-27 supplement (Thermo Fisher Scientific, cat. 17504044), 1X N-2 supplement (Thermo Fisher Scientific, cat. […]

[1] = curve of first compound, second compound 0.0316 µM
[2] = curve of first compound, second compound 0.1 µM
[3] = curve of first compound, second compound 0.316 µM
[4] = curve of first compound, second compound 1 µM
[5] = curve of first compound, second compound 3.16 µM
[6] = curve of first compound, second compound 10 µM
[7] = second compound 0.0316 µM, first compound 0.0316 µM
[8] = second compound 0.0316 µM, first compound 0.1 µM
[9] = second compound 0.0316 µM, first compound 0.316 µM
[10] = second compound 0.0316 µM, first compound 1 µM
[11] = second compound 0.0316 µM, first compound 3.16 µM
[12] = second compound 0.0316 µM, first compound 10 µM
[13] = second compound 0.1 µM, first compound 0.0316 µM
[14] = second compound 0.1 µM, first compound 0.1 µM
[15] = second compound 0.1 µM, first compound 0.316 µM
[16] = second compound 0.1 µM, first compound 1 µM
[17] = second compound 0.1 µM, first compound 3.16 µM
[18] = second compound 0.1 µM, first compound 10 µM
[19] = second compound 0.316 µM, first compound 0.0316 µM
[20] = second compound 0.316 µM, first compound 0.1 µM
[21] = second compound 0.316 µM, first compound 0.316 µM
[22] = second compound 0.316 µM, first compound 1 µM
[23] = second compound 0.316 µM, first compound 3.16 µM
[24] = second compound 0.316 µM, first compound 10 µM
[25] = second compound 1 µM, first compound 0.0316 µM
[26] = second compound 1 µM, first compound 0.1 µM
[27] = second compound 1 µM, first compound 0.316 µM
[28] = second compound 1 µM, first compound 1 µM
[29] = second compound 1 µM, first compound 3.16 µM
[30] = second compound 1 µM, first compound 10 µM
[31] = second compound 3.16 µM, first compound 0.0316 µM
[32] = second compound 3.16 µM, first compound 0.1 µM
[33] = second compound 3.16 µM, first compound 0.316 µM
[34] = second compound 3.16 µM, first compound 1 µM
[35] = second compound 3.16 µM, first compound 3.16 µM
[36] = second compound 3.16 µM, first compound 10 µM
[37] = second compound 10 µM, first compound 0.0316 µM
[38] = second compound 10 µM, first compound 0.1 µM
[39] = second compound 10 µM, first compound 0.316 µM
[40] = second compound 10 µM, first compound 1 µM
[41] = second compound 10 µM, first compound 3.16 µM
[42] = second compound 10 µM, first compound 10 µM
[43] = compound alone, run of 01/19/2024
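Further: spheroids exposed to compounds for seven days.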
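Wherever viability, T/C is given: 100% = DMSO vehicle control viability.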

COc1cc(C2c3cc4c(cc3C(OC3OC5COC(C)OC5C(O)C3O)C3COC(=O)C23)OCO4)cc(OC)c1O (stereo not drawn) + COC1C(OC(N)=O)C(O)C(Oc2ccc3c(O)c(NC(=O)c4ccc(O)c(CC=C(C)C)c4)c(=O)oc3c2C)OC1(C)C
IC50 [1]: > 10 µM | IC50 [2]: > 10 µM | IC50 [3]: > 10 µM | IC50 [4]: 10 µM | IC50 [5]: > 10 µM | IC50 [6]: > 10 µM | viability, T/C [7]: 93.7% | viability, T/C [8]: 81.6% | viability, T/C [9]: 52% | viability, T/C [10]: 57.3% | viability, T/C [11]: 74% | viability, T/C [12]: 52.9% | viability, T/C [13]: 87.1% | viability, T/C [14]: 87.2% | viability, T/C [15]: 63% | viability, T/C [16]: 56.3% | viability, T/C [17]: 70.4% | viability, T/C [18]: 50.4% | viability, T/C [19]: 110% | viability, T/C [20]: 88.8% | viability, T/C [21]: 66.1% | viability, T/C [22]: 56.2% | viability, T/C [23]: 60.3% | viability, T/C [24]: 52.9% | viability, T/C [25]: 91.5% | viability, T/C [26]: 99.9% | viability, T/C [27]: 53.4% | viability, T/C [28]: 61% | viability, T/C [29]: 60.4% | viability, T/C [30]: 56% | viability, T/C [31]: 94.9% | viability, T/C [32]: 96.9% | viability, T/C [33]: 75.3% | viability, T/C [34]: 51% | viability, T/C [35]: 58.1% | viability, T/C [36]: 52.9% | viability, T/C [37]: 108% | viability, T/C [38]: 90.2% | viability, T/C [39]: 56.7% | viability, T/C [40]: 48.9% | viability, T/C [41]: 64.5% | viability, T/C [42]: 55.3%

COc1ccc([C@@H](O)c2cc(-c3ncnc4cc(N5CCOCC5)ccc34)c(F)cc2Cl)nn1
viability, T/C (compound 0.0316 µM): 102% and 95.6% and 99.4% | viability, T/C (compound 0.1 µM): 109% and 88.8% and 107% | viability, T/C (compound 0.316 µM): 71.6% and 95% and 74.9% | viability, T/C (compound 1 µM): 57.8% and 63.2% and 70.5% | viability, T/C (compound 3.16 µM): 54.7% and 51.1% and 55.4% | viability, T/C (compound 10 µM): 38.2% and 43.1% and 35.9% | IC50 (curve of compound): > 10 µM and 2.58 µM and 3.9 µM

O=C(Nc1ccc(O)c(NS(=O)(=O)c2ccc(F)cc2)c1)c1ccc(-c2ccccc2)cc1
viability, T/C (compound 0.0316 µM): 91.2% and 109% and 105% | viability, T/C (compound 0.1 µM): 85.2% and 97.7% and 112% | viability, T/C (compound 0.316 µM): 114% and 129% and 88% | viability, T/C (compound 1 µM): 112% and 139% and 119% | viability, T/C (compound 3.16 µM): 101% and 130% and 122% | viability, T/C (compound 10 µM): 75.8% and 76.8% and 71.4% | IC50 (curve of compound): > 10 µM

Cc1cccc(N(C)C(=O)C2C(O)CCN2c2nc(C)cc(C(F)(F)F)c2C#N)c1 (stereo not drawn)
viability, T/C (compound 3.16 µM): 94.3% [middle of 13 runs] | IC50 (compound alone, run of 01/08/2024): > 10 µM | IC50 [43]: > 10 µM

COc1cccc2c1C(=O)c1c(O)c3c(c(O)c1C2=O)CC(O)(C(=O)CO)CC3OC1CC(N)C(O)C(C)O1 (stereo not drawn) + Cc1cccc(N(C)C(=O)C2C(O)CCN2c2nc(C)cc(C(F)(F)F)c2C#N)c1
IC50 [1]: 0.244 µM | IC50 [2]: 0.148 µM | IC50 [3]: 0.15 µM | IC50 [4]: 0.196 µM | IC50 [5]: 0.183 µM | IC50 [6]: 0.135 µM | viability, T/C [7]: 70.9% | viability, T/C [8]: 69.3% | viability, T/C [9]: 44.2% | viability, T/C [10]: 2.17% | viability, T/C [11]: 0.48% | viability, T/C [12]: 1.56% | viability, T/C [13]: 77% | viability, T/C [14]: 56.6% | viability, T/C [15]: 34.7% | viability, T/C [16]: 2.14% | viability, T/C [17]: 1.04% | viability, T/C [18]: 1.26% | viability, T/C [19]: 57.3% | viability, T/C [20]: 59.7% | viability, T/C [21]: 35.2% | viability, T/C [22]: 4.5% | viability, T/C [23]: 0.81% | viability, T/C [24]: 0.94% | viability, T/C [25]: 58.9% | viability, T/C [26]: 78% | viability, T/C [27]: 37% | viability, T/C [28]: 2.29% | viability, T/C [29]: 1.29% | viability, T/C [30]: 1.22% | viability, T/C [31]: 61.8% | viability, T/C [32]: 69% | viability, T/C [33]: 36.2% | viability, T/C [34]: 1.55% | viability, T/C [35]: 1.05% | viability, T/C [36]: 0.85% | viability, T/C [37]: 55.7% | viability, T/C [38]: 62.4% | viability, T/C [39]: 24.7% | viability, T/C [40]: 0.91% | viability, T/C [41]: 0.87% | viability, T/C [42]: 1.31%

CCCS(=O)(=O)Nc1ccc(F)c(C(=O)c2c[nH]c3ncc(-c4ccc(Cl)cc4)cc23)c1F
viability, T/C (compound 0.0316 µM): 74.9% and 85.2% and 120% | viability, T/C (compound 0.1 µM): 89.7% and 99.9% and 114% | viability, T/C (compound 0.316 µM): 84.1% and 105% and 81.2% | viability, T/C (compound 1 µM): 96.2% and 106% and 87.5% | viability, T/C (compound 3.16 µM): 62.4% and 72.5% and 71.5% | viability, T/C (compound 10 µM): 50% and 43.1% and 36.3% | IC50 (curve of compound): > 10 µM and 7.63 µM and 6.63 µM

C=CCn1c(=O)c2cnc(Nc3ccc(N4CCN(C)CC4)cc3)nc2n1-c1cccc(C(C)(C)O)n1
viability, T/C (compound 0.00316 µM): 97.5% and 109% and 88.1% | viability, T/C (compound 0.01 µM): 87.6% and 92.1% and 104% | viability, T/C (compound 0.0316 µM): 97.2% and 110% and 104% | viability, T/C (compound 0.1 µM): 80.1% and 100% and 88.6% | viability, T/C (compound 0.316 µM): 57.7% and 70.7% and 79.8% | viability, T/C (compound 1 µM): 54.2% and 67% and 62.5% | IC50 (curve of compound): > 1 µM

Nc1ccc(C#CCN(C(=O)Cc2ncc(C(F)(F)F)cc2C(F)(F)F)c2ccc(F)cc2)nn1
viability, T/C (compound 0.1 µM): 95.3% [middle of 13 runs] | viability, T/C (compound 10 µM): 102% [middle of 13 runs] | IC50 [43]: > 10 µM
